One data set concerns Target C. Description: HiBiT protein abundance assay, Target C (K562 HiBiT knock-in). Format: cell-based, human. The conditions noted are these: HiBiT knock-in cells, 24 hours. Summed up: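 K562 HiBiT knock-in cells (10000/well) in IMDM + 1% FBS were treated for 24 h at 37° C. with a 10-point 3-fold dilution series (top 10 μM final), with DMSO ≤0.25%. Unmodified K562 served as baseline. HiBiT lytic luminescence was normalized to controls, and IC50 was interpolated at 50% from a four-parameter fit.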
For orientation: HiBiT is a short tag that completes a luciferase, so light tracks the accessible tagged protein.

A further data set has as its system K562 cells. Description: Cell viability, Cell Titer Glo 2.0 assay, K562. The conditions noted are these: 72 hours. Background: In ATP-based viability assays light output follows the ATP content of the culture.
Another data set has as its system HiBiT-tagged MYB protein. Description: HiBiT protein abundance assay, MYB (K562 HiBiT knock-in). Format: cell-based, human. Conditions: HiBiT knock-in cells, 24 hours. Summed up: (§1)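 Endogenously HiBiT-tagged K562 knock-in lines treated 24 h at 37 °C with 10-point 3-fold dilutions (top 10 μM final, DMSO ≤0.25%) in IMDM+1% FBS. Lytic Nano-Glo luminescence normalized to DMSO and unmodified K562 controls; four-parameter fit gives 50%-abundance concentration (IC50).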

The subject of the next data set is HiBiT-tagged HTT protein. As to the kind of experiment: HiBiT protein abundance assay, HTT (K562 HiBiT knock-in). Format: cell-based, human. The conditions noted are these: HiBiT knock-in cells, 24 hours. Summed up: as §1
For the next data set, the system named is Target C mRNA. Description: Splicing RT-qPCR panel, Target C canonical junction (CJ) mRNA. Conditions: Homo sapiens, read-out: Target C CJ (decrease in CJ mRNA levels, IC50). Format: cell-based, human. Summed up:
(§2)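 A673 cells (DMEM, 10% FBS) or K562 cells (IMDM, 10% FBS) treated 24 h at 37 °C with an 11-point 3-fold dilution, top 10 uM, DMSO ≤0.25%. Canonical-junction mRNA quantified in lysates by RT-qPCR, normalised to GAPDH, GUSB or PPIA and to DMSO (2^−ΔΔCt), then converted to % response.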
(Quantitative PCR measures a nucleic acid by following its amplification.)

For the next data set, the system named is SMN2 mRNA. Description: Splicing RT-qPCR panel, SMN2 canonical junction (CJ) mRNA. Conditions: Homo sapiens, read-out: SMN2 CJ (decrease in CJ mRNA levels, IC50). Format: cell-based, human. In outline: as §2

`Cn1cc2cc(-c3ccc4cc(N5CC[C@H](NC(C)(C)C)C5)cnc4n3)c(O)cc2n1` (single isomer, unassigned) [Compound 200]: the IC50 was 1000 to 10000 nM in the data set on Target C; 100 to 1000 nM in the data set on HiBiT-tagged MYB protein; 1000 to 10000 nM in the data set with HiBiT-tagged HTT protein; 1000 to 10000 nM with Target C mRNA; under 100 nM in the data set on SMN2 mRNA. For the same compound, the “Effect on Cell Viability, K562” value with K562 cells is given as “B (100-1000 nM)”.

For `CNC1CCN(c2cnc3nc(-c4cc(F)c5nc(C)cn5c4)ccc3c2)C1` (stereo not drawn) [Compound 100, 1-(7-{8-fluoro-2-methylimidazo[1,2-a]pyridin-6-yl}-1,8-naphthyridin-3-yl)-N-methylpyrrolidin-3-amine], the IC50 was 100 to 1000 nM with Target C; under 100 nM with HiBiT-tagged MYB protein; 100 to 1000 nM in the data set with HiBiT-tagged HTT protein; 100 to 1000 nM with Target C mRNA; under 100 nM in the data set on SMN2 mRNA. Also, the “Effect on Cell Viability, K562” value with K562 cells is recorded as “B (100-1000 nM)”.

For `Cn1cc2cc(-c3cnc4nc(N5CCNCC5)cc(Cl)c4c3)cc(F)c2n1` [Compound 101, 4-chloro-6-(7-fluoro-2-methyl-2H-indazol-5-yl)-2-(piperazin-1-yl)-1,8-naphthyridine], the IC50 with Target C is 1000 to 10000 nM; in the data set on HiBiT-tagged MYB protein, under 100 nM; in the data set with HiBiT-tagged HTT protein, 1000 to 10000 nM; in the data set with Target C mRNA, over 10000 nM; in the data set on SMN2 mRNA, under 100 nM. Moreover, in the data set on K562 cells, the “Effect on Cell Viability, K562” value is reported as “B (100-1000 nM)”.

For `CNC1CCN(c2cnc3nc(-c4cc5cn(C)nc5c(C)c4O)nc(OC)c3c2)C1` (stereo not drawn) [Compound 161, 5-{4-methoxy-6-[3-(methylamino)pyrrolidin-1-yl]pyrido[2,3-d]pyrimidin-2-yl}-2,7-dimethylindazol-6-ol], the IC50 is 100 to 1000 nM in the data set on Target C; under 100 nM in the data set with HiBiT-tagged MYB protein; 100 to 1000 nM in the data set with HiBiT-tagged HTT protein; 1000 to 10000 nM with Target C mRNA; under 100 nM in the data set with SMN2 mRNA.

In the case of `COc1nc(-c2cc3cn(C)nc3c(C)c2O)nc2ncc(N3CCNCC3)cc12` [Compound 162, 5-[4-methoxy-6-(piperazin-1-yl)pyrido[2,3-d]pyrimidin-2-yl]-2,7-dimethylindazol-6-ol], the IC50 with Target C was 100 to 1000 nM; in the data set on HiBiT-tagged MYB protein, under 100 nM; in the data set with HiBiT-tagged HTT protein, 100 to 1000 nM; in the data set with Target C mRNA, 1000 to 10000 nM; in the data set with SMN2 mRNA it was under 100 nM.

`CNC1CCN(c2cnc3nc(-c4cc5cn(C)nc5c(C)c4O)cc(Cl)c3n2)C1` (stereo not drawn) [Compound 193, 5-{8-chloro-2-[3-(methylamino)355pyrrolidine-1-yl]pyrido[2,3-b]pyrazin-6-yl}-2,7-dimethylindazol-6-ol]: the IC50 with Target C is 100 to 1000 nM; with HiBiT-tagged MYB protein, under 100 nM; in the data set on HiBiT-tagged HTT protein it was 100 to 1000 nM; with Target C mRNA it was 100 to 1000 nM; in the data set on SMN2 mRNA, under 100 nM.

As for `CNC1CCN(c2cnc3nc(-c4cc5cn(C)nc5c(C)c4O)cc(OC)c3n2)C1` (stereo not drawn) [Compound 194, 5-{8-methoxy-2-[3-(methylamino)360pyrrolidine-1-yl]pyrido[2,3-b]pyrazin-6-yl}-2,7-dimethylindazol-6-ol], the IC50 is 1000 to 10000 nM with Target C; 1000 to 10000 nM in the data set with HiBiT-tagged MYB protein; 1000 to 10000 nM with HiBiT-tagged HTT protein; over 10000 nM in the data set on Target C mRNA; 100 to 1000 nM with SMN2 mRNA.

Consider `Cn1cc2cc(-c3ccc4cc(N5CC[C@@H](NC(C)(C)C)C5)cnc4n3)c(O)cc2n1` [Compound 199], for which the IC50 is 1000 to 10000 nM with Target C; under 100 nM with HiBiT-tagged MYB protein; 1000 to 10000 nM in the data set with HiBiT-tagged HTT protein; 1000 to 10000 nM with Target C mRNA; 100 to 1000 nM with SMN2 mRNA.

Consider `Cc1cn2nc(-c3ccc4cc(N(C)C5CCNCC5)cnc4n3)cc(C)c2n1` [Compound 205, 7-{2,8-dimethylimidazo[1,2-b]pyridazin-6-yl}-N-methyl-N-(piperidin-4-yl)-1,8-naphthyridin-3-amine], for which the IC50 in the data set with Target C was over 10000 nM; in the data set with HiBiT-tagged MYB protein, 1000 to 10000 nM; with HiBiT-tagged HTT protein, over 10000 nM; with Target C mRNA, over 10000 nM; in the data set with SMN2 mRNA, 100 to 1000 nM.

A word on the IC50: it is the concentration that inhibits the measured activity by half.

These data come from US20250326748A1, “COMPOUNDS AND METHODS FOR MODULATING SPLICING” (REMIX THERAPEUTICS INC., priority 2022, published 2025).
